pIC50: −log10 of the molar value.

The first test addresses T1, FXR ligand binding domain (GST-FXR LBD fusion protein, human FXR aa 193-473) (Homo sapiens, UniProt Q96RI1).
T1 construct: fused on or other part: Glutathione-S-transferase (GST) fused N-terminally to the FXR LBD, used to capture the protein on glutathione SPA beads
T1 sequence (Q96RI1 211-486 limits assumed): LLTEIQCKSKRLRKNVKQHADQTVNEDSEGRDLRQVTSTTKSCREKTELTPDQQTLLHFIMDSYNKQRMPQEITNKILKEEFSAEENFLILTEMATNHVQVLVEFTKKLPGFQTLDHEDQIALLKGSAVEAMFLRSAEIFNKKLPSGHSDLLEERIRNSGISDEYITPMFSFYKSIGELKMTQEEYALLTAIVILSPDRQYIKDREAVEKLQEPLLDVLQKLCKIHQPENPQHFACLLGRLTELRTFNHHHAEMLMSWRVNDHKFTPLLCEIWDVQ
Nature of the test: Radioligand binding assay (scintillation proximity, radioligand displacement). The note with it: 40 nM GST-FXR LBD on SPA beads, test compound 6×10^−9 M to 2.5×10^−5 M, read-out: h-IC50 Binding. In a few lines: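 40 nM GST-FXR LBD, E. coli-expressed, bound to glutathione yttrium silicate SPA beads in 50 mM Hepes pH 7.4, 10 mM NaCl, 5 mM MgCl2, 0.01% CHAPS. Test compounds displace radioligand (e.g. 20 nM benzimidazolyl-acetamide ligand); bound ligand measured by scintillation proximity counting.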
(In general: SPA uses beads or plates that emit light when radiolabelled molecules are held near them.)
On to `Fc1cc2nc(-c3ccc(Cl)cc3)n(C(COc3ccc(-c4nnn[nH]4)cc3F)C3CCCCC3)c2cc1F` (stereo not shown) [Example 66, 2-(4-Chloro-phenyl)-1-{1-cyclohexyl-2-[2-fluoro-4-(1H-tetrazol-5-yl)-phenoxy]-ethyl}-5,6-difluoro-1H-benzoimidazole], for which the pIC50 (usually the IC50 on a negative log10 scale, so that one unit is a factor of ten) was 8.00.
Turning to `O=C(O)c1ccc(COCC(C2CCCCC2)n2c(-c3ccc(Cl)cc3)nc3cc(F)c(F)cc32)nc1` (stereo not shown) [Example 67, 6-{2-[2-(4-Chloro-phenyl)-5,6-difluoro-benzoimidazol-1-yl]-2-cyclohexyl-ethoxymethyl}-nicotinic acid], the negative-log IC50 (pIC50) is 5.60.
For `Cc1cc(-c2nnn[nH]2)cc(C)c1OCC(C1CCCCC1)n1c(-c2ccc(Cl)cc2)nc2cc(F)c(F)cc21` (stereo not shown) [Example 70, 2-(4-Chloro-phenyl)-1-{1-cyclohexyl-2-[2,6-dimethyl-4-(1H-tetrazol-5-yl)-phenoxy]-ethyl}-5,6-difluoro-1H-benzoimidazole], the pIC50 was 8.00.
Still for that read-out and setting: under `COc1ccc(-c2nc3cc(F)c(F)cc3n2C(COc2ccc(C(=O)O)cn2)C2CCCCC2)c(OC)n1` (stereo not shown) [Example 73, 6-{2-Cyclohexyl-2-[2-(2,6-dimethoxy-pyridin-3-yl)-5,6-difluoro-benzoimidazol-1-yl]-ethoxy}-nicotinic acid] stands 7.00.
Take `O=C(O)c1cc(F)c(OCC(C2CCCCC2)n2c(-c3ccc(Cl)cc3)nc3cc(F)c(F)cc32)c(Cl)c1` (stereo not shown) [Example 76, 3-Chloro-4-{2-[2-(4-chloro-phenyl)-5,6-difluoro-benzoimidazol-1-yl]-2-cyclohexyl-ethoxy}-5-fluoro-benzoic acid]: the negative-log IC50 (pIC50) was 8.40.
Take `CC(OCC(C1CCCCC1)n1c(-c2ccc(Cl)cc2)nc2cc(F)c(F)cc21)c1ccc(C(=O)O)cc1` (stereo not shown) [Example 79, 4-(1-{2-[2-(4-Chloro-phenyl)-5,6-difluoro-benzoimidazol-1-yl]-2-cyclohexyl-ethoxy}-ethyl)-benzoic acid]: the negative-log IC50 (pIC50) is 6.22.
Take `COc1ccc(-c2nc3cc(F)c(F)cc3n2C(COc2c(C)cc(C(=O)O)cc2C)C2CCCCC2)c(OC)n1` (stereo not shown) [Example 82, 4-{2-Cyclohexyl-2-[2-(2,6-dimethoxy-pyridin-3-yl)-5,6-difluoro-benzoimidazol-1-yl]-ethoxy}-3,5-dimethyl-benzoic acid]: the negative logarithm of the IC50 (pIC50) is 9.00.
Regarding `O=C(O)c1cc(F)c(OCC(C2CCCCC2)n2c(-c3ccc(Cl)cc3)nc3cc(F)c(F)cc32)c(F)c1` (stereo not shown) [Example 85, 4-{2-[2-(4-Chloro-phenyl)-5,6-difluoro-benzoimidazol-1-yl]-2-cyclohexyl-ethoxy}-3,5-difluoro-benzoic acid], the negative logarithm of the IC50 (pIC50) is 8.00.
Turning to `CC(C)(Oc1ccc(OCC(C2CCCCC2)n2c(-c3ccc(Cl)cc3)nc3cc(F)c(F)cc32)cc1)C(=O)O` (stereo not shown) [Example 90, 2-(4-{2-[2-(4-Chloro-phenyl)-5,6-difluoro-benzoimidazol-1-yl]-2-cyclohexyl-ethoxy}-phenoxy)-2-methyl-propionic acid], the negative-log IC50 (pIC50) is 6.70.
Regarding `Cc1cc(OCC(C2CCCCC2)n2c(-c3ccc(Cl)cc3)nc3cc(F)c(F)cc32)ccc1OCC(=O)O` (stereo not shown) [Example 92, (4-{2-[2-(4-Chloro-phenyl)-5,6-difluoro-benzoimidazol-1-yl]-2-cyclohexyl-ethoxy}-2-methyl-phenoxy)-acetic acid], the negative-log IC50 (pIC50) is 7.05.
Regarding `Cc1c(OCC(C2CCCCC2)n2c(-c3ccc(Cl)cc3)nc3cc(F)c(F)cc32)ccc(OC(C)(C)C(=O)O)c1C` (stereo not shown) [Example 93, 2-(4-{2-[2-(4-Chloro-phenyl)-5,6-difluoro-benzoimidazol-1-yl]-2-cyclohexyl-ethoxy}-2,3-dimethyl-phenoxy)-2-methyl-propionic acid], the pIC50 is 6.52.
Take `CC(C)(Oc1ccc(OCC(C2CCCCC2)n2c(-c3ccc(Cl)cc3)nc3cc(F)c(F)cc32)c(F)c1)C(=O)O` (stereo not shown) [Example 94, 2-(4-{2-[2-(4-Chloro-phenyl)-5,6-difluoro-benzoimidazol-1-yl]-2-cyclohexyl-ethoxy}-3-fluoro-phenoxy)-2-methyl-propionic acid]: the pIC50 is 7.00.
With `CC(C)(Oc1cccc(OCC(C2CCCCC2)n2c(-c3ccc(Cl)cc3)nc3cc(F)c(F)cc32)c1)C(=O)O` (stereo not shown) [Example 95, 2-(3-{2-[2-(4-Chloro-phenyl)-5,6-difluoro-benzoimidazol-1-yl]-2-cyclohexyl-ethoxy}-phenoxy)-2-methyl-propionic acid], the pIC50 was 6.22.
Same read-out and setting: then `COc1ccc(-c2nc3cc(F)c(F)cc3n2C(COc2c(F)cc(C(=O)O)cc2F)C2CCCCC2)c(OC)n1` (stereo not shown) [Example 96, 4-{2-Cyclohexyl-2-[2-(2,6-dimethoxy-pyridin-3-yl)-56-difluoro-benzoimidazol-1-yl]-ethoxy}-3,5-difluoro-benzoic acid], with 8.70; and `COc1ccc(-c2nc3cc(F)c(F)cc3n2C(COc2c(C)cc(-c3nnn[nH]3)cc2C)C2CCCCC2)c(OC)n1` (stereo not shown) [Example 99, 1-{1-cyclohexyl-2-[2,6-dimethyl-4-(1H-tetrazol-5-yl)-phenoxy]-ethyl}-2-(2,6-dimethoxy-pyridin-3-yl)-5,6-difluoro-1H-benzoimidazole], with 8.70.
Same read-out and setting: then `O=C(O)c1cc(F)c(OCC(C2CCCCC2)n2c(-c3ccc(Cl)cc3)nc3ccccc32)c(F)c1` (stereo not shown) [Example 102, 4-{2-[2-(4-Chloro-phenyl)-benzoimidazol-1-yl]-2-cyclohexyl-ethoxy}-3,5-difluoro-benzoic acid], with 7.52.
Still for that read-out and setting: under `Cc1cc(C(=O)O)cc(C)c1OCC(C1CCCCC1)n1c(-c2ccc(Cl)cc2)nc2ccccc21` (stereo not shown) [Example 105, 4-{2-[2-(4-Chloro-phenyl)-benzoimidazol-1-yl]-2-cyclohexyl-ethoxy}-3,5-dimethyl-benzoic acid] stands 7.40; under `O=C(O)c1cc(F)c(OCC(C2CCCCC2)n2c(-c3ccc(Cl)cc3)nc3ccccc32)c(Cl)c1` (stereo not shown) [Example 108, 3-Chloro-4-{2-[2-(4-chloro-phenyl)-benzoimidazol-1-yl]-2-cyclohexyl-ethoxy}-5-fluoro-benzoic acid], 8.00; under `Cc1cc(-c2nnn[nH]2)cc(C)c1OCC(C1CCCCC1)n1c(-c2ccc(Cl)cc2)nc2ccccc21` (stereo not shown) [Example 111, 2-(4-Chloro-phenyl)-1-{1-cyclohexyl-2-[2,6-dimethyl-4-(1H-tetrazol-5-yl)-phenoxy]-ethyl}-1H-benzoimidazole], 7.70.
Regarding `O=C(O)c1cnc(OCC(C2CCCCC2)n2c(-c3ccc(Cl)cc3)nc3cc(F)c(F)cc32)c(Br)c1` (stereo not shown) [Example 114, 5-Bromo-6-{2-[2-(4-chloro-phenyl)-5,6-difluoro-benzoimidazol-1-yl]-2-cyclohexyl-ethoxy}-nicotinic acid], the pIC50 was 7.22.
Same read-out and setting: then `O=C(O)C1(Oc2ccc(OCC(C3CCCCC3)n3c(-c4ccc(Cl)cc4)nc4cc(F)c(F)cc43)cc2)CCC1` (stereo not shown) [Example 117, 1-(4-{2-[2-(4-Chloro-phenyl)-5,6-difluoro-benzoimidazol-1-yl]-2-cyclohexyl-ethoxy}-phenoxy)-cyclobutanecarboxylic acid], with 7.40.

Still in this test, the particulars now being: h-IC50 Binding, 40 nM GST-FXR LBD on SPA beads, test compound 6×10^−9 M to 2.5×10^−5 M.
`O=C(O)COc1ccc(OCC(C2CCCCC2)n2c(-c3ccc(Cl)cc3)nc3cc(F)c(F)cc32)cc1` (stereo not shown) [Example 91, (4-{2-[2-(4-Chloro-phenyl)-5,6-difluoro-benzoimidazol-1-yl]-2-cyclohexyl-ethoxy}-phenoxy)-acetic acid] showed a negative logarithm of the IC50 (pIC50) of 7.22.
